Paper PMC2805098 (Biochemistry, 2009)
Where “and” joins values, the source holds several entries; their conditions need not be identical. Identical values can stand only once. Like-named read-outs stand apart in the source and are kept apart here.

Tests used:
Phe223Ala MTHFR [1] = molecular target: T1, Phe223Ala MTHFR (Escherichia coli, UniProt P0AEZ1, F223A); assay: Reaction of reduced enzyme with menadione, stopped-flow; assay type: biochemical; conditions: […] μM menadione, within dead time of the instrument, data not shown
Phe223Leu MTHFR [2] = molecular target: T2, Phe223Leu MTHFR (Escherichia coli, UniProt P0AEZ1, F223L); assay: as above; assay type: biochemical; conditions: […] μM menadione, within dead time of the instrument, data not shown
wild-type MTHFR [3] = conditions: 25 °C, pH 7.2; cited from earlier work
wild-type MTHFR [4] = conditions: 25 °C, pH 7.2, cited from earlier work
Phe223Ala MTHFR [5] = molecular target: T1, Phe223Ala MTHFR; assay: Reductive half-reaction with NADH, stopped-flow; assay type: biochemical
Phe223Leu MTHFR [6] = molecular target: T2, Phe223Leu MTHFR; assay: Reductive half-reaction with NADH, stopped-flow; assay type: biochemical
Phe223Leu MTHFR [7] = molecular target: T2, Phe223Leu MTHFR; assay: NADH-menadione oxidoreductase assay, steady-state; assay type: biochemical
Phe223Ala MTHFR [8] = molecular target: T1, Phe223Ala MTHFR; assay: NADH-menadione oxidoreductase assay, steady-state; assay type: biochemical; conditions: […] μM menadione, varying NADH, 25 °C, pH 7.2
HpaC = conditions: read-out: Km for NADH; 30 °C; cited from earlier work
PheA2 = conditions: read-out: Km for NADH; 53 °C; cited from earlier work
Phe223Ala MTHFR [9] = molecular target: T1, Phe223Ala MTHFR; assay: Oxidative half-reaction with CH2-H4folate, stopped-flow; assay type: biochemical
wild-type MTHFR [10] = conditions: 25 °C, cited from earlier work
Phe223Leu MTHFR [11] = molecular target: T2, Phe223Leu MTHFR; assay: Oxidative half-reaction with CH2-H4folate, stopped-flow; assay type: biochemical
Phe223Leu MTHFR [12] = molecular target: T2, Phe223Leu MTHFR; assay: NADH-CH2-H4folate oxidoreductase assay, steady-state; assay type: biochemical
Phe223Ala MTHFR [13] = molecular target: T1, Phe223Ala MTHFR; assay: as above
wild-type MTHFR [14] = conditions: 25 °C, pH 7.2, cited from earlier work; remark: listed apart in the source
Phe223Leu MTHFR [15] = molecular target: T2, Phe223Leu MTHFR; assay: NADPH binding; conditions: data not shown
[16] = 25 °C, pH 7.2, anaerobic, 450 nm

CC1=CC(=O)c2ccccc2C1=O [menadione]
time of reaction of reduced enzyme with menadione (Phe223Ala MTHFR [1]): ≤ 3 ms | time of reaction of reduced enzyme with menadione (Phe223Leu MTHFR [2]): ≤ 3 ms

NADH
kcat (wild-type MTHFR [3]): 55 ± 8.3 s⁻¹ | k2’ (wild-type MTHFR [4]): 55 ± 6 s⁻¹ | Kd (wild-type MTHFR [4]; read-out: Kd for NADH): 32 ± 5 µM | k2’ maximal observed rate constant for reduction (Phe223Ala MTHFR [5]; [16]): 40 ± 2 s⁻¹ | change in standard free binding energy for NADH (Phe223Ala MTHFR [5]; at 298 K, from 40-fold increase in Kd): 2.2 kcal/mol | increase in Kd for NADH over wild-type enzyme (Phe223Leu MTHFR [6]): 14 fold | k2’ maximal observed rate constant for reduction (Phe223Leu MTHFR [6]; [16]): 35 ± 1 s⁻¹ | increase in Km for NADH compared to wild-type (Phe223Leu MTHFR [7]): 7 fold | kcat (Phe223Leu MTHFR [7]; […] μM menadione, varying NADH, 25 °C, pH 7.2): 31 ± 4 s⁻¹ | kcat (Phe223Ala MTHFR [8]): 22 ± 4 s⁻¹ | Km (HpaC): 36.8 µM | Km (PheA2): 8.8 µM

Nc1nc2c(c(=O)[nH]1)N1CN(c3ccc(C(=O)N[C@@H](CCC(=O)O)C(=O)O)cc3)C[C@H]1CN2 [CH2-H4folate, 5,10-methylenetetrahydrofolate]
Kd (Phe223Ala MTHFR [9]): 500 ± 230 µM | change in standard free binding energy for CH2-H4folate (Phe223Ala MTHFR [9]): 2.3 kcal/mol | decrease in affinity for CH2-H4folate compared to wild-type (Phe223Ala MTHFR [9]): 45 fold | slower rate of oxidation compared to slow phase of wild-type (Phe223Ala MTHFR [9]): 2 fold | k5’ maximal rate constant, slow phase (Phe223Ala MTHFR [9]; 25 °C, pH 7.2, anaerobic, slow phase (~16% of absorbance change)): 4.5 ± 1.1 ^e s^−1 | k5’, slow phase (wild-type MTHFR [10]; pH 7.2, slow phase): 10.3 ± 1.0 ^e s^−1 | Kd (wild-type MTHFR [10]; read-out: Kd for CH2-H4folate, pH 7.2): 11 ± 1 µM | Kd (Phe223Leu MTHFR [11]): 9 ± 2 µM | increase in rate of oxidation compared to slow phase of wild-type enzyme (Phe223Leu MTHFR [11]): 3 fold | Ki (Phe223Leu MTHFR [12]): 160 ± 27 µM | CH2-H4folate concentration above which inhibition was seen (Phe223Leu MTHFR [12]; 1000 μM NADH): exceeding 100 μM | theoretical turnover number calculated from the two half-reactions (Phe223Leu MTHFR [12]; eq 8, ping-pong bi-bi): 17 s⁻¹ | decrease in kcat compared to wild-type (Phe223Ala MTHFR [13]): 4 fold | kcat (Phe223Ala MTHFR [13]; anaerobic, 25 °C, pH 7.2): 2.9 s⁻¹ and 2.9 ± 0.5 s⁻¹ | theoretical turnover number calculated from the two half-reactions (Phe223Ala MTHFR [13]; eq 9, slow phase of oxidation): 4.0 s⁻¹ | kcat (wild-type MTHFR [14]): 10.4 ± 1.0 s⁻¹ | Ki (wild-type MTHFR [14]; read-out: Ki for CH2-H4folate): 320 ± 25 µM | Km (wild-type MTHFR [14]; read-out: Km for CH2-H4folate): 0.5 ± 0.1 µM

NADPH
ability to bind NADPH (Phe223Leu MTHFR [15]): no ability to bind NADPH
